Measurements: patent publication US20260224589A1 (priority 2023, published 2026)
Read-outs that look alike come from different tables or passages of the source.

Test system: AsPC-1 cells
Test: phospho-ERK HTRF assay in AsPC-1 cells, 4 h treatment
Format: cell-based
Details: Homo sapiens, ASPC1
[1] = AsPC-1, 4H, Table 1a class column, read-out: pERK IC50 activity range (*)
[2] = AsPC-1, 4H, Table 1a, read-out: PERK IC50 (AsPC-1, 4H)
[3] = AsPC-1, 4h, Table 1b, read-out: PERK IC50 (AsPC-1, 4h)

SMILES	IC50 [1] [µM]	IC50 [2] [µM]	IC50 [3] [µM]
CN(C)C(=O)c1nn2c(c1Cl)CN(c1nc(OC[C@@]34CCCN3CC(=C(F)F)C4)nc3c1CO[C@H](c1c(C(F)(F)F)ccc(N)c1F)C3)CCC2 [231a, 5-((S)-7-(3-amino-2-fluoro-6-(trifluoromethyl)phenyl)-2-(((S)-2-(difluoromethylene)tetrahydro-1H-pyrrolizin-7a(5H)-yl)methoxy)-7,8-dihydro-5H-pyrano[4,3-d]pyrimidin-4-yl)-3-chloro-N,N-dimethyl-5,6,7,8-tetrahydro-4H-pyrazolo[1,5-a][1,4]diazepine-2-carboxamide]	0.031 to 0.1	0.032	–
CCc1c(C(=O)N(C)C)nn2c1CN(c1nc(OC[C@@]34CCCN3C[C@H](F)C4)nc3c1CO[C@H](c1cc(N)cc(Cl)c1C(F)(F)F)C3)CCC2 [compound 409]	0.01 to 0.03	–	–
CN(C)C(=O)c1nn2c(c1Cl)CN(c1nc(OC[C@@]34CCCN3C[C@H](F)C4)nc3c1CO[C@H](c1c(C(F)(F)F)ccc(Br)c1F)C3)CCC2 [compound 220]	> 0.5	1.04	–
CN(C)C(=O)c1nc2c(s1)CN(c1nc(OC[C@@]34CCCN3C[C@H](F)C4)nc3c1CO[C@H](c1c(C(F)(F)F)ccc(N)c1F)C3)CCC2 [compound 209]	0.101 to 0.5	0.479	–
CN(C)C(=O)c1nn2c(c1Cl)CN(c1nc(OC[C@@]34CCCN3CC(=C(F)F)C4)nc3c1CO[C@@H](c1c(F)c(N)cc(Cl)c1C(F)(F)F)C3)CCC2 [248b, 5-((R)-7-(3-amino-5-chloro-2-fluoro-6-(trifluoromethyl)phenyl)-2-(((S)-2-(difluoromethylene)tetrahydro-1H-pyrrolizin-7a(5H)-yl)methoxy)-7,8-dihydro-5H-pyrano[4,3-d]pyrimidin-4-yl)-3-chloro-N,N-dimethyl-5,6,7,8-tetrahydro-4H-pyrazolo[1,5-a][1,4]diazepine-2-carboxamide]	> 0.5	> 2.5	–
CN(C)C(=O)c1nn2c(c1Cl)CN(c1nc(OC[C@@]34CCCN3C[C@H](F)C4)nc3c1CO[C@@H](c1c(F)c(N)cc(Cl)c1C(F)(F)F)C3)CCC2 [213b]	0.101 to 0.5	0.32	–
CCN(CC)C(=O)c1nn2c(c1Cl)CN(c1nc(OC[C@@]34CCCN3C/C(=C\F)C4)nc3c1CO[C@H](c1c(F)c(N)cc(Cl)c1C(F)(F)F)C3)CCC2 [compound 434]	–	–	< 0.01
Cc1cc(N)cc([C@@H]2Cc3nc(OC[C@@]45CCCN4C/C(=C\F)C5)nc(N4CCCn5nc(C(=O)N(C)C)c(C)c5C4)c3CO2)c1C(F)(F)F [compound 415]	–	–	< 0.01
CCN(C)C(=O)c1nn2c(c1Cl)CN(c1nc(OC[C@@]34CCCN3C/C(=C\F)C4)nc3c1CO[C@H](c1c(F)c(N)cc(Cl)c1C(F)(F)F)C3)CCC2 [compound 432]	–	–	< 0.01
CN(C)C(=O)c1nn2c(c1Cl)CN(c1nc(OC[C@@]34CCCN3C[C@H](F)C4)nc3c1COC(c1c(C(F)(F)F)ccc(N)c1F)C3)CC1(COC1)C2 (stereo partly shown) [compound 222]	> 0.5	> 10	–
CN(C)C(=O)c1nc2c(o1)CCCN(c1nc(OC[C@@]34CCCN3C[C@H](F)C4)nc3c1COC(c1c(C(F)(F)F)ccc(N)c1F)C3)C2 (stereo partly shown) [compound 208]	> 0.5	1.44	–
CN(C)C(=O)n1nc2c(c1Cl)CN(c1nc(OC[C@@]34CCCN3C[C@H](F)C4)nc3c1COC(c1c(C(F)(F)F)ccc(N)c1F)C3)CCC2 (stereo partly shown) [compound 226]	> 0.5	0.943	–
CN(C)C(=O)c1nn2c(c1Cl)CN(c1nc(OC[C@@]34CCCN3CC(=C(F)F)C4)nc3c1CO[C@H](c1c(F)c(N)cc(Cl)c1C(F)(F)F)C3)CCC2 [248a, 5-((S)-7-(3-amino-5-chloro-2-fluoro-6-(trifluoromethyl)phenyl)-2-(((S)-2-(difluoromethylene)tetrahydro-1H-pyrrolizin-7a(5H)-yl)methoxy)-7,8-dihydro-5H-pyrano[4,3-d]pyrimidin-4-yl)-3-chloro-N,N-dimethyl-5,6,7,8-tetrahydro-4H-pyrazolo[1,5-a][1,4]diazepine-2-carboxamide]	–	–	< 0.01
CN(C)C(=O)c1nn2c(c1Cl)CN(c1nc(OC[C@@]34CCCN3C[C@H](F)C4)nc3c1CO[C@H](c1c(F)c(N)cc(F)c1C(F)(F)F)C3)CCC2 [214a, 5-((S)-7-(3-amino-2,5-difluoro-6-(trifluoromethyl)phenyl)-2-(((2R,7aS)-2-fluorotetrahydro-1H-pyrrolizin-7a(5H)-yl)methoxy)-7,8-dihydro-5H-pyrano[4,3-d]pyrimidin-4-yl)-3-chloro-N,N-dimethyl-5,6,7,8-tetrahydro-4H-pyrazolo[1,5-a][1,4]diazepine-2-carboxamide]	–	–	< 0.01
CN(C)C(=O)c1nn2c(c1Cl)CN(c1nc(OC[C@@]34CCCN3C/C(=C\F)C4)nc3c1COC(c1c(C(F)(F)F)ccc(N)c1F)C3)CCC2 (stereo partly drawn) [compound 233, 5-(7-(3-amino-2-fluoro-6-(trifluoromethyl)phenyl)-2-(((S,Z)-2-(fluoromethylene)tetrahydro-1H-pyrrolizin-7a(5H)-yl)methoxy)-7,8-dihydro-5H-pyrano[4,3-d]pyrimidin-4-yl)-3-chloro-N,N-dimethyl-5,6,7,8-tetrahydro-4H-pyrazolo[1,5-a][1,4]diazepine-2-carboxamide]	0.01 to 0.03	0.03	–
Nc1cc(Cl)c(C(F)(F)F)c([C@@H]2Cc3nc(OC[C@@]45CCCN4C/C(=C\F)C5)nc(N4CCCn5nc(C(=O)N6CCCC6)c(Cl)c5C4)c3CO2)c1 [compound 422]	–	–	< 0.01
CN(C)C(=O)c1nn2c(c1Cl)CN(c1nc(OC[C@@]34CCCN3C/C(=C\F)C4)nc3c1COC(c1cc(N)cc(F)c1C(F)(F)F)C3)CCC2 (stereo partly shown) [compound 246]	0.01 to 0.03	0.0159	–

SMILES	IC50 [1] [µM]	IC50 [2] [µM]	IC50 [3] [µM]
COc1c(C(=O)N(C)C)nn2c1CN(c1nc(OC[C@@]34CCCN3C[C@H](F)C4)nc3c1COC(c1c(F)c(N)cc(Cl)c1C(F)(F)F)C3)CCC2 (stereo partly shown) [compound 249]	0.101 to 0.5	0.113	–
CN(C)C(=O)c1nn2c(c1Cl)CN(c1nc(OC[C@@]34CCCN3C/C(=C\F)C4)nc3c1CO[C@H](c1cc(N)cc(Cl)c1C1CC1)C3)CCC2 [compound 439]	–	–	< 0.01
CN(C)C(=O)c1nn2c(c1Cl)CN(c1nc(OC[C@@]34CCCN3C/C(=C\F)C4)nc3c1COC(c1cc(N)cc(Cl)c1C1CC1)C3)CCC2 (stereo partly shown) [compound 438]	–	–	< 0.01
CON(C)C(=O)c1nn2c(c1Cl)CN(c1nc(OC[C@@]34CCCN3CC(=C(F)F)C4)nc3c1COC(c1c(F)c(N)cc(Cl)c1C(F)(F)F)C3)CCC2 (stereo partly shown) [compound 454]	0.01 to 0.03	–	–
CN(C)C(=O)c1nn2c(c1Cl)CN(c1nc(OC[C@@]34CCCN3C[C@H](F)C4)nc3c1COC(c1cc(N)ccc1C(F)(F)F)C3)CCC2 (stereo in doubt) [230b, 5-((R)-7-(5-amino-2-(trifluoromethyl)phenyl)-2-(((2R,7aS)-2-fluorotetrahydro-1H-pyrrolizin-7a(5H)-yl)methoxy)-7,8-dihydro-5H-pyrano[4,3-d]pyrimidin-4-yl)-3-chloro-N,N-dimethyl-5,6,7,8-tetrahydro-4H-pyrazolo[1,5-a][1,4]diazepine-2-carboxamide]	0.031 to 0.1	0.013	–
CS(=O)(=O)c1nn2c(c1Cl)CN(c1nc(OC[C@@]34CCCN3C[C@H](F)C4)nc3c1CO[C@H](c1c(C(F)(F)F)ccc(N)c1F)C3)CCC2 [211a, 3-((S)-4-(3-Chloro-2-(methylsulfonyl)-7,8-dihydro-4H-pyrazolo[1,5-a][1,4]diazepin-5(6H)-yl)-2-(((2R,7aS)-2-fluorotetrahydro-1H-pyrrolizin-7a(5H)-yl)methoxy)-7,8-dihydro-5H-pyrano[4,3-d]pyrimidin-7-yl)-2-fluoro-4-(trifluoromethyl)aniline]	0.101 to 0.5	0.126	–
Cc1c(C(=O)N(C)C)nn2c1CN(c1nc(OC[C@]34CCCN3C[C@@H](C=C(F)F)C4)nc3c1CO[C@H](c1c(F)c(N)cc(Cl)c1C(F)(F)F)C3)CCC2 [compound 458]	–	–	< 0.01
Nc1ccc(C(F)(F)F)c(C2Cc3nc(OC[C@@]45CCCN4C[C@H](F)C5)nc(N4CCCC(=O)CC4)c3CO2)c1F (stereo partly shown) [compound 206]	> 0.5	> 10	–
Cc1cc(N)cc([C@@H]2Cc3nc(OC[C@@]45CCCN4C[C@H](F)C5)nc(N4CCCn5nc(C(=O)N(C)C)c(C)c5C4)c3CO2)c1C(F)(F)F [compound 405]	0.01 to 0.03	–	–
CN(C)C(=O)c1nn2c(c1Cl)CN(c1nc(OC[C@@]34CCCN3C/C(=C\F)C4)nc3c1COC(c1cc(N)cc(Cl)c1C(F)(F)F)C3)CCC2 (stereo partly shown) [compound 242]	–	–	< 0.01
CN(C)C(=O)c1nn2c(c1Cl)CN(c1nc(OC[C@@]34CCCN3C[C@H](F)C4)nc3c1CO[C@H](c1cc(N)cc(F)c1C(F)(F)F)C3)CCC2 [compound 402]	0.01 to 0.03	–	–
CN(C)C(=O)c1nn2c(c1Cl)CN(c1nc(OC[C@]34CCCN3C[C@@H](C=C(F)F)C4)nc3c1CO[C@H](c1cc(N)cc(Cl)c1C(F)(F)F)C3)CCC2 [compound 456]	–	–	< 0.01
Cc1cc(N)cc(C2Cc3nc(OC[C@@]45CCCN4C[C@H](F)C5)nc(N4CCCn5nc(C(=O)N(C)C)c(Cl)c5C4)c3CO2)c1C(F)(F)F (stereo partly shown) [compound 239]	0.01 to 0.03	0.0128	–
Cc1c(C(=O)N(C)C)nn2c1CN(c1nc(OC[C@@]34CCCN3C[C@H](F)C4)nc3c1CO[C@H](c1cc(N)cc(Cl)c1C(F)(F)F)C3)CCC2 [compound 414]	–	–	< 0.01
[2H]C([2H])([2H])N(C(=O)c1nn2c(c1Cl)CN(c1nc(OC[C@@]34CCCN3C[C@H](F)C4)nc3c1CO[C@@H](c1c(F)c(N)cc(Cl)c1C(F)(F)F)C3)CCC2)C([2H])([2H])[2H] [250b]	0.01 to 0.03	–	–
CN(C)C(=O)c1nn2c(c1Cl)CN(c1nc(OC[C@@]34CCCN3C[C@H](F)C4)nc3c1CO[C@@H](c1c(C(F)(F)F)cc(F)c(N)c1F)C3)CCC2 [216b]	> 0.5	> 10	–
